Reference: patent publication US20180333382A1, “PHARMACEUTICAL COMPOSITIONS COMPRISING DGLA AND USE OF SAME” (DS Biopharma Limited, priority 2017, published 2018)

Assay: Phase one study part 2: multiple dose (28 days) plasma PK of free and total DGLA
Assay type: in vivo, human
Procedure: Multiple dose part two of the study comprised two cohorts (Cohorts five and six) of eight subjects each, who were administered multiple doses of study drug in the fasted state for 28 days. Subjects in Cohorts five and six received DS107G at 2000 or 4000 mg, respectively, or matching placebo once daily for 28 days. Cohort six was started after Cohort five's safety data were evaluated by the SMC. No interim analysis was planned. […]
In Part two of the study (Cohorts five and six), subjects were administered study drug (500-mg DS107G capsules or matching placebo capsules) once daily in the fasted state for 28 days. Subjects in Cohort five received study drug first and, if they tolerated the 2000-mg daily dose for the first 14 days, subjects in Cohort six were started on the 4000-mg daily dose for 28 days.
PK parameter was computed after correcting the dosed DGLA concentrations with baseline DGLA concentrations.

[1] = 2000 mg once daily, Day 1, 0 to 24 hours
[2] = 2000 mg once daily, Day 28, 0 to 24 hours
[3] = 2000 mg once daily, Day 28, 0 to 168 hours
[4] = 2000 mg once daily, Day 28: 0 to 24 hours
[5] = 4000 mg once daily, Day 1, 0 to 24 hours

## CCCCC/C=C\C/C=C\C/C=C\CCCCCCC(=O)O [DS107G, Dihomo gamma linolenic acid]
2000 mg
  free DGLA mean accumulation ratio (AR), AUC: ~3.3
  free DGLA mean accumulation ratio (AR), Cmax: ~2.8
[1]
  AUC0-24, mean, free DGLA, baseline-corrected plasma: 4548.7 ng·h/mL
  AUC0-24/Dose, mean, free DGLA, baseline-corrected plasma: 2.27 h/kL
  AUC0-24/Dose, mean, total DGLA, baseline-corrected plasma: 149.09 h/kL
  AUC0-inf, mean, free DGLA, baseline-corrected plasma: 5955.6 ng·h/mL
  AUC0-inf/Dose, mean, free DGLA, baseline-corrected plasma: 2.98 h/kL
  AUC0-inf/Dose, mean, total DGLA, baseline-corrected plasma: 2080.61 h/kL
  CL/F, mean, free DGLA, baseline-corrected plasma: 0.5448 kL/h
  Cmax, mean, free DGLA, baseline-corrected plasma: 850.5 ng/mL
  Cmax/Dose, mean, free DGLA, baseline-corrected plasma: 0.425 kL⁻¹
  Cmax/Dose, mean, total DGLA, baseline-corrected plasma: 9.050 kL⁻¹
  λz, mean, free DGLA, baseline-corrected plasma: 0.2133 h⁻¹
  λz, mean, total DGLA, baseline-corrected plasma: 0.221 h⁻¹
[2]
  AUC0-24, mean, free DGLA, baseline-corrected plasma: 9248.1 ng·h/mL
  AUC0-24/Dose, mean, free DGLA, baseline-corrected plasma: 4.62 h/kL
  AUC0-24/Dose, mean, total DGLA, baseline-corrected plasma: 675.69 h/kL
  AUC0-inf, mean, free DGLA, baseline-corrected plasma: 10389.0 ng·h/mL
  AUC0-inf/Dose, mean, free DGLA, baseline-corrected plasma: 5.19 h/kL
  AUC0-inf/Dose, mean, total DGLA, baseline-corrected plasma: 2579.58 h/kL
  CL/F, mean, free DGLA, baseline-corrected plasma: 0.2002 kL/h
  Cmax, mean, free DGLA, baseline-corrected plasma: 1999.3 ng/mL
  Cmax/Dose, mean, free DGLA, baseline-corrected plasma: 1.000 kL⁻¹
  Cmax/Dose, mean, total DGLA, baseline-corrected plasma: 37.792 kL⁻¹
  λz, mean, free DGLA, baseline-corrected plasma: 0.1282 h⁻¹
  λz, mean, total DGLA, baseline-corrected plasma: 0.0199 h⁻¹
[3]
  AUC0-24, mean, free DGLA, baseline-corrected plasma: 9248.1 ng·h/mL
  AUC0-24/Dose, mean, free DGLA, baseline-corrected plasma: 4.62 h/kL
  AUC0-24/Dose, mean, total DGLA, baseline-corrected plasma: 675.69 h/kL
  AUC0-inf, mean, free DGLA, baseline-corrected plasma: 43024.8 ng·h/mL
  AUC0-inf/Dose, mean, free DGLA, baseline-corrected plasma: 21.51 h/kL
  AUC0-inf/Dose, mean, total DGLA, baseline-corrected plasma: 2513.91 h/kL
  CL/F, mean, free DGLA, baseline-corrected plasma: 0.0949 kL/h
  Cmax, mean, free DGLA, baseline-corrected plasma: 1999.3 ng/mL
  Cmax/Dose, mean, free DGLA, baseline-corrected plasma: 1.000 kL⁻¹
  Cmax/Dose, mean, total DGLA, baseline-corrected plasma: 37.792 kL⁻¹
  λz, mean, free DGLA, baseline-corrected plasma: 0.0250 h⁻¹
  λz, mean, total DGLA, baseline-corrected plasma: 0.0169 h⁻¹
[4]
  % PTF (peak trough fluctuation), mean, free DGLA, steady-state baseline-corrected plasma: 492.54%
  % PTF (peak trough fluctuation), mean, total DGLA, steady-state baseline-corrected plasma: 62.50%
  AR(AUC) accumulation ratio, mean, free DGLA, steady-state baseline-corrected plasma: 3.340
  AR(AUC) accumulation ratio, mean, total DGLA, steady-state baseline-corrected plasma: 7.991
  AR(Cmax) accumulation ratio, mean, free DGLA, steady-state baseline-corrected plasma: 2.796
  AR(Cmax) accumulation ratio, mean, total DGLA, steady-state baseline-corrected plasma: 5.156
  CLss/F, mean, free DGLA, steady-state baseline-corrected plasma: 0.2295 kL/h
  CLss/F, mean, total DGLA, steady-state baseline-corrected plasma: 0.0016 kL/h
  Cavg, mean, free DGLA, steady-state baseline-corrected plasma: 385.3 ng/mL
  Cavg, mean, total DGLA, steady-state baseline-corrected plasma: 56307.2 ng/mL
  Cmin, mean, free DGLA, steady-state baseline-corrected plasma: 100.8 ng/mL
  Cmin, mean, total DGLA, steady-state baseline-corrected plasma: 37933.3 ng/mL
  Vzss/F, mean, free DGLA, steady-state baseline-corrected plasma: 5.3096 kL
  Vzss/F, mean, total DGLA, steady-state baseline-corrected plasma: 0.0980 kL
  tmin, median, free DGLA, steady-state baseline-corrected plasma: 8.00 h
  tmin, median, total DGLA, steady-state baseline-corrected plasma: 1.50 h
4000 mg
  free DGLA mean accumulation ratio (AR), AUC: ~1.6
  free DGLA mean accumulation ratio (AR), Cmax: ~1.4
[5]
  AUC0-24, mean, free DGLA, baseline-corrected plasma: 11441.4 ng·h/mL
  AUC0-24/Dose, mean, free DGLA, baseline-corrected plasma: 2.86 h/kL
  AUC0-24/Dose, mean, total DGLA, baseline-corrected plasma: 114.05 h/kL
  AUC0-inf, mean, free DGLA, baseline-corrected plasma: 13900.3 ng·h/mL
  AUC0-inf/Dose, mean, free DGLA, baseline-corrected plasma: 3.48 h/kL
  CL/F, mean, free DGLA, baseline-corrected plasma: 0.3325 kL/h
  Cmax, mean, free DGLA, baseline-corrected plasma: 2641.5 ng/mL
  Cmax/Dose, mean, free DGLA, baseline-corrected plasma: 0.660 kL⁻¹
  Cmax/Dose, mean, total DGLA, baseline-corrected plasma: 6.967 kL⁻¹
  λz, mean, free DGLA, baseline-corrected plasma: 0.1504 h⁻¹
